Experimental data from the NIST ThermoML archive (doi:10.1021/acs.jced.7b00106).
Numbers after ± are expanded uncertainties.

Conditions: Hot wire method

FC(F)(F)/C=C/Cl [(E)-1-chloro-3,3,3-trifluoroprop-1-ene]
Conditions	thermal conductivity [W/m/K]
313.49 K, 134 kPa, Gas	0.01209 ± 0.00043
313.66 K, 195 kPa, Gas	0.01193 ± 0.00043
313.74 K, 96 kPa, Gas	0.01156 ± 0.00041
313.74 K, 97 kPa, Gas	0.01206 ± 0.00043
313.81 K, 164 kPa, Gas	0.01205 ± 0.00043
314.19 K, 96 kPa, Gas	0.0121 ± 0.00043
314.29 K, 165 kPa, Gas	0.01203 ± 0.00043
314.47 K, 132 kPa, Gas	0.01204 ± 0.00043
314.68 K, 96 kPa, Gas	0.01213 ± 0.00043
314.8 K, 166 kPa, Gas	0.01203 ± 0.00043
315 K, 133 kPa, Gas	0.01215 ± 0.00043
315.2 K, 96 kPa, Gas	0.01218 ± 0.00043
315.34 K, 166 kPa, Gas	0.01208 ± 0.00043
315.56 K, 132 kPa, Gas	0.01212 ± 0.00043
315.75 K, 96 kPa, Gas	0.01223 ± 0.00044
316.33 K, 96 kPa, Gas	0.01227 ± 0.00044
321.04 K, 25085 kPa, Liquid	0.08832 ± 0.0031
321.04 K, 34321 kPa, Liquid	0.09144 ± 0.0067
321.04 K, 34326 kPa, Liquid	0.09107 ± 0.0085
321.05 K, 43820 kPa, Liquid	0.0947 ± 0.0043
321.1 K, 25070 kPa, Liquid	0.08802 ± 0.0071
321.1 K, 34323 kPa, Liquid	0.09161 ± 0.0064
321.12 K, 34308 kPa, Liquid	0.0914 ± 0.0066
321.12 K, 43822 kPa, Liquid	0.09482 ± 0.004
321.33 K, 16965 kPa, Liquid	0.08442 ± 0.0033
321.34 K, 9798 kPa, Liquid	0.08117 ± 0.0037
321.36 K, 5192 kPa, Liquid	0.07831 ± 0.0031
321.4 K, 197 kPa, Gas	0.0125 ± 0.00044
321.4 K, 16967 kPa, Liquid	0.08432 ± 0.0034
321.41 K, 254 kPa, Gas	0.01268 ± 0.00045
321.41 K, 460 kPa, Liquid	0.07538 ± 0.0077
321.42 K, 66597 kPa, Liquid	0.1039 ± 0.0073
321.43 K, 56114 kPa, Liquid	0.09911 ± 0.014
321.44 K, 5187 kPa, Liquid	0.07816 ± 0.0034
321.44 K, 66587 kPa, Liquid	0.1042 ± 0.0037
321.45 K, 34301 kPa, Liquid	0.09197 ± 0.0078
321.46 K, 43814 kPa, Liquid	0.09486 ± 0.0091
321.47 K, 25082 kPa, Liquid	0.08816 ± 0.0027
321.47 K, 34329 kPa, Liquid	0.09187 ± 0.0095
321.47 K, 43832 kPa, Liquid	0.09487 ± 0.008
321.48 K, 458 kPa, Liquid	0.07551 ± 0.0031
321.51 K, 66615 kPa, Liquid	0.1035 ± 0.0043
321.52 K, 56121 kPa, Liquid	0.0993 ± 0.0037
321.52 K, 66605 kPa, Liquid	0.1041 ± 0.012
321.55 K, 34296 kPa, Liquid	0.09167 ± 0.006
321.55 K, 43839 kPa, Liquid	0.09474 ± 0.0059
321.56 K, 25086 kPa, Liquid	0.08833 ± 0.0027
321.56 K, 34311 kPa, Liquid	0.09191 ± 0.0082
321.63 K, 145 kPa, Gas	0.01268 ± 0.00045
321.7 K, 256 kPa, Gas	0.01247 ± 0.00044
321.72 K, 196 kPa, Gas	0.01245 ± 0.00044
321.77 K, 98 kPa, Gas	0.01281 ± 0.00045
321.78 K, 16953 kPa, Liquid	0.08463 ± 0.0026
321.81 K, 9811 kPa, Liquid	0.08084 ± 0.0025
321.85 K, 5178 kPa, Liquid	0.07845 ± 0.0024
321.86 K, 66588 kPa, Liquid	0.1041 ± 0.0088
321.88 K, 56118 kPa, Liquid	0.1004 ± 0.0031
321.89 K, 16957 kPa, Liquid	0.0846 ± 0.0027
321.91 K, 466 kPa, Liquid	0.07595 ± 0.0031
321.91 K, 9793 kPa, Liquid	0.08062 ± 0.0025
321.92 K, 43825 kPa, Liquid	0.09584 ± 0.0029
321.94 K, 145 kPa, Gas	0.01263 ± 0.00045
321.94 K, 34296 kPa, Liquid	0.09207 ± 0.0043
321.94 K, 43828 kPa, Liquid	0.09571 ± 0.0029
321.96 K, 5173 kPa, Liquid	0.07856 ± 0.0025
321.96 K, 34304 kPa, Liquid	0.09237 ± 0.0031
321.97 K, 142 kPa, Gas	0.01247 ± 0.00044
321.97 K, 25089 kPa, Liquid	0.0883 ± 0.0029
321.97 K, 66599 kPa, Liquid	0.1033 ± 0.0088
321.99 K, 66600 kPa, Liquid	0.1033 ± 0.0088
322 K, 56120 kPa, Liquid	0.09953 ± 0.0032
322.01 K, 257 kPa, Gas	0.01246 ± 0.00044
322.01 K, 259 kPa, Gas	0.01279 ± 0.00045
322.01 K, 462 kPa, Liquid	0.07568 ± 0.0028
322.04 K, 43829 kPa, Liquid	0.09557 ± 0.0032
322.05 K, 99 kPa, Gas	0.01242 ± 0.00044
322.05 K, 194 kPa, Gas	0.01256 ± 0.00045
322.06 K, 34292 kPa, Liquid	0.09256 ± 0.0041
322.06 K, 43826 kPa, Liquid	0.09519 ± 0.0031
322.07 K, 189 kPa, Gas	0.01239 ± 0.00044
322.08 K, 34300 kPa, Liquid	0.09194 ± 0.0046
322.09 K, 98 kPa, Gas	0.01259 ± 0.00045
322.09 K, 25078 kPa, Liquid	0.08798 ± 0.0028
322.22 K, 122 kPa, Gas	0.0128 ± 0.00045
322.23 K, 142 kPa, Gas	0.01241 ± 0.00044
322.25 K, 164 kPa, Gas	0.01289 ± 0.00046
322.27 K, 260 kPa, Gas	0.0128 ± 0.00045
322.29 K, 144 kPa, Gas	0.01276 ± 0.00045
322.3 K, 16963 kPa, Liquid	0.08446 ± 0.0034
322.32 K, 188 kPa, Gas	0.01244 ± 0.00044
322.33 K, 99 kPa, Gas	0.01222 ± 0.00044
322.34 K, 258 kPa, Gas	0.0126 ± 0.00045
322.36 K, 9801 kPa, Liquid	0.08109 ± 0.0026
322.36 K, 66579 kPa, Liquid	0.1031 ± 0.0094
322.38 K, 66598 kPa, Liquid	0.1031 ± 0.0057
322.39 K, 193 kPa, Gas	0.01261 ± 0.00045
322.4 K, 5186 kPa, Liquid	0.07821 ± 0.0024
322.4 K, 56115 kPa, Liquid	0.09929 ± 0.0053
322.44 K, 98 kPa, Gas	0.01281 ± 0.00045
322.44 K, 16945 kPa, Liquid	0.08465 ± 0.0034
322.46 K, 43829 kPa, Liquid	0.09512 ± 0.0042
322.47 K, 43824 kPa, Liquid	0.09516 ± 0.0031
322.49 K, 450 kPa, Liquid	0.07575 ± 0.0023
322.49 K, 9815 kPa, Liquid	0.081 ± 0.0025
322.49 K, 34282 kPa, Liquid	0.09204 ± 0.005
322.5 K, 66578 kPa, Liquid	0.1033 ± 0.0094
322.51 K, 34308 kPa, Liquid	0.0922 ± 0.0037
322.51 K, 66603 kPa, Liquid	0.1032 ± 0.0037
322.52 K, 141 kPa, Gas	0.01234 ± 0.00044
322.54 K, 260 kPa, Gas	0.01283 ± 0.00046
322.54 K, 5172 kPa, Liquid	0.07803 ± 0.0028
322.54 K, 25075 kPa, Liquid	0.08816 ± 0.0028
322.55 K, 123 kPa, Gas	0.01279 ± 0.00045
322.56 K, 164 kPa, Gas	0.0126 ± 0.00045
322.61 K, 99 kPa, Gas	0.01223 ± 0.00044
322.63 K, 187 kPa, Gas	0.01233 ± 0.00044
322.63 K, 440 kPa, Liquid	0.0752 ± 0.0023
322.63 K, 43821 kPa, Liquid	0.09452 ± 0.0034
322.64 K, 143 kPa, Gas	0.0128 ± 0.00045
322.64 K, 34270 kPa, Liquid	0.09178 ± 0.0057
322.66 K, 34302 kPa, Liquid	0.09186 ± 0.0028
322.71 K, 25078 kPa, Liquid	0.08769 ± 0.0027
322.72 K, 259 kPa, Gas	0.01251 ± 0.00044
322.78 K, 192 kPa, Gas	0.01262 ± 0.00045
322.81 K, 141 kPa, Gas	0.01231 ± 0.00044
322.82 K, 99 kPa, Gas	0.01285 ± 0.00046
322.82 K, 260 kPa, Gas	0.01282 ± 0.00046
322.83 K, 123 kPa, Gas	0.01245 ± 0.00044
322.89 K, 123 kPa, Gas	0.01281 ± 0.00045
322.89 K, 164 kPa, Gas	0.01245 ± 0.00044
322.9 K, 164 kPa, Gas	0.01257 ± 0.00045
322.9 K, 16956 kPa, Liquid	0.08425 ± 0.0032
322.91 K, 99 kPa, Gas	0.0122 ± 0.00043
322.91 K, 66592 kPa, Liquid	0.1026 ± 0.0033
322.92 K, 186 kPa, Gas	0.0124 ± 0.00044
322.92 K, 66618 kPa, Liquid	0.1032 ± 0.0033
322.96 K, 56154 kPa, Liquid	0.09964 ± 0.0047
322.97 K, 9802 kPa, Liquid	0.08079 ± 0.0036
323.03 K, 143 kPa, Gas	0.01271 ± 0.00045
323.05 K, 5181 kPa, Liquid	0.07837 ± 0.0024
323.06 K, 43815 kPa, Liquid	0.09535 ± 0.0054
323.07 K, 16973 kPa, Liquid	0.08427 ± 0.0027
323.07 K, 43817 kPa, Liquid	0.09505 ± 0.0053
323.08 K, 66614 kPa, Liquid	0.1032 ± 0.0033
323.1 K, 259 kPa, Gas	0.01262 ± 0.00045
